Values quoted from earlier work in patent US10369118B2, “Method of reducing scarring” (Cole Research & Design, Inc., priority 2013, dated 2019).

Key:
keratinocytes = details: appear to be cytotoxic

- solubility in water: very low solubility
Structure (SMILES): Oc1ccc(/C=C/c2cc(O)cc(O)c2)cc1 [resveratrol, trans-3,4′,5-trihydroxystilbene]
- concentrations cytotoxic to keratinocytes (keratinocytes): above 100 micromoles/liter
